How the values were obtained:
Assay in all cases: cells
A204 = type: functional, cell-based, Homo sapiens; conditions: Homo sapiens, A204;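 also: growth inhibition of human A204 cells, read out with a cell viability assay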
Description: SANGER: Inhibition of human A204 cell growth in a cell viability assay.

MMAC-SF = type: functional, cell-based, Homo sapiens; conditions: Homo sapiens, MMAC-SF;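 also: growth inhibition of human MMAC-SF cells, read out with a cell viability assay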
Description: SANGER: Inhibition of human MMAC-SF cell growth in a cell viability assay.

COLO-741 = type: functional, cell-based, Homo sapiens; conditions: Homo sapiens, COLO-741
Description: SANGER: Inhibition of human COLO-741 cell growth in a cell viability assay.

MS-1 = type: functional, cell-based; conditions: Homo sapiens;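 also: growth inhibition of MS-1 cells, read out by cell viability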
Description: SANGER: Inhibition of human MS-1 cell growth in a cell viability assay.

UO-31 = type: functional, cell-based; conditions: Homo sapiens;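 also: cell viability assay measuring inhibition of cell growth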
Description: SANGER: Inhibition of human U031 cell growth in a cell viability assay.

HC-1 = type: functional, cell-based; conditions: Homo sapiens;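 also: growth inhibition of HC-1 cells measured by a cell viability assay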
Description: SANGER: Inhibition of human HC-1 cell growth in a cell viability assay.

SK-LU-1 = type: functional, cell-based, Homo sapiens; conditions: Homo sapiens, SK-LU-1;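 also: cell viability assay measuring growth inhibition of human SK-LU-1 cells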
Description: SANGER: Inhibition of human SK-LU-1 cell growth in a cell viability assay.

ACN = type: functional, cell-based, Homo sapiens; conditions: Homo sapiens, ACN;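 also: growth inhibition of the human ACN cell line, read out via cell viability testing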
Description: SANGER: Inhibition of human ACN cell growth in a cell viability assay.

COLO-684 = type: functional, cell-based; conditions: Homo sapiens
Description: SANGER: Inhibition of human COLO-684 cell growth in a cell viability assay.

CAL-62 = type: functional, cell-based, Homo sapiens; conditions: Homo sapiens, CAL-62;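 also: growth inhibition of CAL-62 cells, read out with a cell viability assay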
Description: SANGER: Inhibition of human CAL-62 cell growth in a cell viability assay.

JVM-3 = type: functional, cell-based; conditions: Homo sapiens;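 also: growth inhibition of human JVM-3 cells, read out with a cell viability assay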
Description: SANGER: Inhibition of human JVM-3 cell growth in a cell viability assay.

EC-GI-10 = type: functional, cell-based, Homo sapiens; conditions: Homo sapiens, EC-GI-10
Description: SANGER: Inhibition of human EC-GI-10 cell growth in a cell viability assay.

NH-12 = type: functional, cell-based, Homo sapiens; conditions: Homo sapiens, NH-12;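 also: growth inhibition of NH-12 cells, read out with a cell viability assay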
Description: SANGER: Inhibition of human NH-12 cell growth in a cell viability assay.

Hs-578T = type: functional, cell-based, Homo sapiens; conditions: Homo sapiens, Hs-578T
Description: SANGER: Inhibition of human Hs-578-T cell growth in a cell viability assay.

KP-N-YS = type: functional, cell-based; conditions: Homo sapiens;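 also: cell viability assay measuring inhibition of cell line growth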
Description: SANGER: Inhibition of human KP-N-YS cell growth in a cell viability assay.

SHP77 = type: functional, cell-based, Homo sapiens, SHP-77; conditions: Homo sapiens, SHP77;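 also: growth inhibition of human SHP-77 cells measured by a cell viability assay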
Description: SANGER: Inhibition of human SHP-77 cell growth in a cell viability assay.

RO82-W-1 = type: functional, cell-based, Homo sapiens; conditions: Homo sapiens, RO82-W-1;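 also: growth inhibition of human RO82-W-1 cells, measured with a cell viability assay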
Description: SANGER: Inhibition of human RO82-W-1 cell growth in a cell viability assay.

T47D = type: functional, cell-based, Homo sapiens; conditions: Homo sapiens, T47D;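 also: growth inhibition of human T47D cells, measured with a cell viability assay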
Description: SANGER: Inhibition of human T47D cell growth in a cell viability assay.

NB12 = type: functional, cell-based, Homo sapiens; conditions: Homo sapiens, NB12;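 also: growth inhibition of human NB12 cells, read out by a cell viability assay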
Description: SANGER: Inhibition of human NB12 cell growth in a cell viability assay.

697 = type: functional, cell-based; conditions: Homo sapiens
Description: SANGER: Inhibition of human 697 cell growth in a cell viability assay.

SW48 = type: functional, cell-based, Homo sapiens; conditions: Homo sapiens, SW48;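 also: growth inhibition of SW48 cells, read out with a cell viability assay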
Description: SANGER: Inhibition of human SW48 cell growth in a cell viability assay.

DU-145 = type: functional, cell-based, Homo sapiens; conditions: Homo sapiens, DU-145
Description: SANGER: Inhibition of human DU-145 cell growth in a cell viability assay.

MEL-HO = type: functional, cell-based, Homo sapiens; conditions: Homo sapiens, MEL-HO
Description: SANGER: Inhibition of human MEL-HO cell growth in a cell viability assay.

OE19 = type: functional, cell-based, Homo sapiens; conditions: Homo sapiens, OE19;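 also: growth inhibition of OE19 cells, measured through a cell viability read-out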
Description: SANGER: Inhibition of human OE19 cell growth in a cell viability assay.

NCI-H727 = type: functional, cell-based, Homo sapiens; conditions: Homo sapiens, NCI-H727;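 also: growth inhibition of human NCI-H727 cells, read out with a cell viability assay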
Description: SANGER: Inhibition of human NCI-H727 cell growth in a cell viability assay.

NCI-H1299 = type: functional, cell-based, Homo sapiens; conditions: Homo sapiens, NCI-H1299;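 also: growth inhibition of human NCI-H1299 cells, read out by a cell viability assay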
Description: SANGER: Inhibition of human NCI-H1299 cell growth in a cell viability assay.

P30-OHK = type: functional, cell-based; conditions: Homo sapiens;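 also: growth inhibition of the P30-OHK cell line, read out with a cell viability assay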
Description: SANGER: Inhibition of human P30-OHK cell growth in a cell viability assay.

MOLT-4 = type: functional, cell-based; conditions: Homo sapiens;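 also: growth inhibition of MOLT-4 cells, determined with a cell viability readout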
Description: SANGER: Inhibition of human MOLT-4 cell growth in a cell viability assay.

D-263MG = type: functional, cell-based, Homo sapiens; conditions: Homo sapiens, D-263MG
Description: SANGER: Inhibition of human D-263MG cell growth in a cell viability assay.

OCI-AML2 = type: functional, cell-based; conditions: Homo sapiens;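 also: growth inhibition of OCI-AML2 cells, read out with a cell viability assay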
Description: SANGER: Inhibition of human OCI-AML2 cell growth in a cell viability assay.

CGTH-W-1 = type: functional, cell-based, Homo sapiens; conditions: Homo sapiens, CGTH-W-1;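 also: growth inhibition of human CGTH-W-1 cells measured by cell viability assay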
Description: SANGER: Inhibition of human CGTH-W-1 cell growth in a cell viability assay.

SK-N-DZ = type: functional, cell-based, Homo sapiens; conditions: Homo sapiens, SK-N-DZ;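 also: growth inhibition of the cancer cell line, read out through a viability assay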
Description: SANGER: Inhibition of human SK-N-DZ cell growth in a cell viability assay.

HCC38 = type: functional, cell-based, Homo sapiens; conditions: Homo sapiens, HCC38;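 also: cell viability assay on the human HCC38 cell line, with IC50 marking the concentration that inhibits cell growth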
Description: SANGER: Inhibition of human HCC38 cell growth in a cell viability assay.

NCI-H1693 = type: functional, cell-based, Homo sapiens; conditions: Homo sapiens, NCI-H1693;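 also: growth inhibition of the human cell line, read out with a cell viability assay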
Description: SANGER: Inhibition of human NCI-H1693 cell growth in a cell viability assay.

UMUC3 = type: functional, cell-based, Homo sapiens; conditions: Homo sapiens, UMUC3;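 also: growth inhibition of human UM-UC-3 cells, read out with a cell viability assay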
Description: SANGER: Inhibition of human UM-UC-3 cell growth in a cell viability assay.

EKVX = type: functional, cell-based, Homo sapiens; conditions: Homo sapiens, EKVX;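 also: growth inhibition of human EKVX cells, read out with a cell viability assay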
Description: SANGER: Inhibition of human EKVX cell growth in a cell viability assay.

HD-MY-Z = type: functional, cell-based, Homo sapiens; conditions: Homo sapiens, HD-MY-Z;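 also: growth inhibition of HD-MY-Z cells, read out with a cell viability assay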
Description: SANGER: Inhibition of human HD-MY-Z cell growth in a cell viability assay.

Mo = type: functional, cell-based; conditions: Homo sapiens
Description: SANGER: Inhibition of human Mo-T cell growth in a cell viability assay.

DEL = type: functional, cell-based; conditions: Homo sapiens;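 also: growth inhibition of the human DEL cell line, read out with a cell viability assay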
Description: SANGER: Inhibition of human DEL cell growth in a cell viability assay.

DOK = type: functional, cell-based, Homo sapiens; conditions: Homo sapiens, DOK;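 also: cell viability assay read-out, values reflect inhibition of cell growth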
Description: SANGER: Inhibition of human DOK cell growth in a cell viability assay.

BPH-1 = type: functional, cell-based, Homo sapiens; conditions: Homo sapiens, BPH-1;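 also: cell viability assay measuring growth inhibition of human BPH-1 cells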
Description: SANGER: Inhibition of human BPH-1 cell growth in a cell viability assay.

D-392MG = type: functional, cell-based, Homo sapiens; conditions: Homo sapiens, D-392MG
NCI-H446 = type: functional, cell-based; conditions: Homo sapiens;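 also: growth inhibition of NCI-H446 cells determined by a cell viability assay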
Description: SANGER: Inhibition of human NCI-H446 cell growth in a cell viability assay.

HO-1-N-1 = type: functional, cell-based, Homo sapiens; conditions: Homo sapiens, HO-1-N-1;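 also: growth inhibition of human HO-1-N-1 cells, read out with a cell viability assay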
Description: SANGER: Inhibition of human HO-1-N-1 cell growth in a cell viability assay.

MN-60 = type: functional, cell-based; conditions: Homo sapiens;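 also: growth inhibition of the MN-60 cell line, determined with a cell viability assay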
Description: SANGER: Inhibition of human MN-60 cell growth in a cell viability assay.

CAL-33 = type: functional, cell-based, Homo sapiens; conditions: Homo sapiens, CAL-33;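 also: growth inhibition of CAL-33 cells, read out with a cell viability assay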
Description: SANGER: Inhibition of human CAL-33 cell growth in a cell viability assay.

SW872 = type: functional, cell-based, Homo sapiens; conditions: Homo sapiens, SW872;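 also: growth inhibition of SW872 cells, read out by a viability assay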
Description: SANGER: Inhibition of human SW872 cell growth in a cell viability assay.

HCE-T = type: functional, cell-based, Homo sapiens; conditions: Homo sapiens, HCE-T;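 also: cell viability assay read-out, reporting inhibition of HCE-T cell growth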
Description: SANGER: Inhibition of human HCE-T cell growth in a cell viability assay.

GI-1 = type: functional, cell-based, Homo sapiens; conditions: Homo sapiens, GI-1
Description: SANGER: Inhibition of human GI-1 cell growth in a cell viability assay.

BCPAP = type: functional, cell-based, Homo sapiens; conditions: Homo sapiens, BCPAP;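 also: growth inhibition of BCPAP cells, read out in a cell viability assay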
Description: SANGER: Inhibition of human BCPAP cell growth in a cell viability assay.

ESS-1 = type: functional, cell-based, Homo sapiens; conditions: Homo sapiens, ESS-1;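 also: growth inhibition of human ESS-1 cells, read out by a cell viability assay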
Description: SANGER: Inhibition of human ESS-1 cell growth in a cell viability assay.

NCI-H69 = type: functional, cell-based; conditions: Homo sapiens;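 also: growth inhibition of the cell line, read out with a cell viability assay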
Description: SANGER: Inhibition of human NCI-H69 cell growth in a cell viability assay.

CP66-MEL = type: functional, cell-based, Homo sapiens; conditions: Homo sapiens, CP66-MEL;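 also: growth inhibition of CP66-MEL cells determined in a cell viability assay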
Description: SANGER: Inhibition of human CP66-MEL cell growth in a cell viability assay.

**Q.** For `CN(Cc1cnc2nc(N)nc(N)c2n1)c1ccc(C(=O)N[C@@H](CCC(=O)O)C(=O)O)cc1` [METHOTREXATE], which IC50 (A204) is on record?
**A.** > 200 nM

**Q.** What about the IC50 (MMAC-SF) of the same compound?
**A.** > 200 nM

**Q.** And the IC50 (COLO-741)?
**A.** 162 nM

**Q.** What about the IC50 (MS-1) of the same compound?
**A.** 45.3 nM

**Q.** And the IC50 (UO-31)?
**A.** > 200 nM

**Q.** What about the IC50 (HC-1) of the same compound?
**A.** 69.6 nM

**Q.** And the IC50 (SK-LU-1)?
**A.** > 200 nM

**Q.** What about the IC50 (ACN) of the same compound?
**A.** > 200 nM

**Q.** What about the IC50 (COLO-684) of the same compound?
**A.** 37.5 nM

**Q.** What about the IC50 (CAL-62) of the same compound?
**A.** > 200 nM

**Q.** What about the IC50 (JVM-3) of the same compound?
**A.** 16 nM

**Q.** What about the IC50 (EC-GI-10) of the same compound?
**A.** > 200 nM

**Q.** What about the IC50 (NH-12) of the same compound?
**A.** > 200 nM

**Q.** What about the IC50 (Hs-578T) of the same compound?
**A.** > 200 nM

**Q.** What about the IC50 (KP-N-YS) of the same compound?
**A.** > 200 nM

**Q.** What about the IC50 (SHP77) of the same compound?
**A.** > 200 nM

**Q.** What about the IC50 (RO82-W-1) of the same compound?
**A.** > 200 nM

**Q.** What about the IC50 (T47D) of the same compound?
**A.** > 200 nM

**Q.** And the IC50 (NB12)?
**A.** > 200 nM

**Q.** What about the IC50 697 of the same compound?
**A.** 12.6 nM

**Q.** And the IC50 (SW48)?
**A.** > 200 nM

**Q.** And the IC50 (DU-145)?
**A.** > 200 nM

**Q.** And the IC50 (MEL-HO)?
**A.** > 200 nM

**Q.** What about the IC50 (OE19) of the same compound?
**A.** > 200 nM

**Q.** What about the IC50 (NCI-H727) of the same compound?
**A.** > 200 nM

**Q.** And the IC50 (NCI-H1299)?
**A.** > 200 nM

**Q.** And the IC50 (P30-OHK)?
**A.** 43.6 nM

**Q.** What about the IC50 (MOLT-4) of the same compound?
**A.** 21.2 nM

**Q.** What about the IC50 (D-263MG) of the same compound?
**A.** > 200 nM

**Q.** And the IC50 (OCI-AML2)?
**A.** > 200 nM

**Q.** And the IC50 (CGTH-W-1)?
**A.** 31.2 nM

**Q.** And the IC50 (SK-N-DZ)?
**A.** > 200 nM

**Q.** And the IC50 (HCC38)?
**A.** > 200 nM

**Q.** And the IC50 (NCI-H1693)?
**A.** > 200 nM

**Q.** What about the IC50 (UMUC3) of the same compound?
**A.** > 200 nM

**Q.** And the IC50 (EKVX)?
**A.** > 200 nM

**Q.** And the IC50 (HD-MY-Z)?
**A.** > 200 nM

**Q.** And the IC50 (Mo)?
**A.** > 200 nM

**Q.** What about the IC50 (DEL) of the same compound?
**A.** 3.12 nM

**Q.** What about the IC50 (DOK) of the same compound?
**A.** > 200 nM

**Q.** And the IC50 (BPH-1)?
**A.** > 200 nM

**Q.** What about the IC50 (D-392MG) of the same compound?
**A.** 158 nM

**Q.** And the IC50 (NCI-H446)?
**A.** > 200 nM

**Q.** And the IC50 (HO-1-N-1)?
**A.** > 200 nM

**Q.** And the IC50 (MN-60)?
**A.** 65.7 nM

**Q.** And the IC50 (CAL-33)?
**A.** > 200 nM

**Q.** And the IC50 (SW872)?
**A.** > 200 nM

**Q.** And the IC50 (HCE-T)?
**A.** > 200 nM

**Q.** And the IC50 (GI-1)?
**A.** > 200 nM

**Q.** And the IC50 (BCPAP)?
**A.** 43.1 nM

**Q.** And the IC50 (ESS-1)?
**A.** > 200 nM

**Q.** How did the IC50 (A204) turn out when `C=CCNC1=C2C[C@@H](C)C[C@H](OC)[C@H](O)[C@@H](C)/C=C(\C)[C@H](OC(N)=O)[C@@H](OC)/C=C\C=C(/C)C(=O)NC(=CC1=O)C2=O` [TANESPIMYCIN] was run?
**A.** 22.5 nM

**Q.** And the IC50 (MMAC-SF)?
**A.** 105 nM

**Q.** What about the IC50 (COLO-741) of the same compound?
**A.** > 1000 nM

**Q.** What about the IC50 (MS-1) of the same compound?
**A.** > 1000 nM

**Q.** And the IC50 (UO-31)?
**A.** 205 nM

**Q.** What about the IC50 (SK-LU-1) of the same compound?
**A.** 30.8 nM

**Q.** And the IC50 (ACN)?
**A.** 41.6 nM

**Q.** What about the IC50 (COLO-684) of the same compound?
**A.** 345 nM

**Q.** What about the IC50 (CAL-62) of the same compound?
**A.** 162 nM

**Q.** What about the IC50 (JVM-3) of the same compound?
**A.** 638 nM

**Q.** What about the IC50 (NH-12) of the same compound?
**A.** > 1000 nM

**Q.** What about the IC50 (Hs-578T) of the same compound?
**A.** 72.1 nM

**Q.** What about the IC50 (KP-N-YS) of the same compound?
**A.** 375 nM

**Q.** What about the IC50 (SHP77) of the same compound?
**A.** 905 nM

**Q.** What about the IC50 (RO82-W-1) of the same compound?
**A.** 397 nM

**Q.** What about the IC50 (T47D) of the same compound?
**A.** > 1000 nM

**Q.** What about the IC50 (NCI-H69) of the same compound?
**A.** 976 nM

**Q.** And the IC50 (NB12)?
**A.** > 1000 nM

**Q.** And the IC50 697?
**A.** > 1000 nM

**Q.** And the IC50 (SW48)?
**A.** 50.4 nM

**Q.** And the IC50 (DU-145)?
**A.** > 1000 nM

**Q.** And the IC50 (MEL-HO)?
**A.** 72.6 nM

**Q.** And the IC50 (OE19)?
**A.** 30.8 nM

**Q.** And the IC50 (NCI-H727)?
**A.** > 1000 nM

**Q.** And the IC50 (NCI-H1299)?
**A.** 163 nM

**Q.** And the IC50 (P30-OHK)?
**A.** > 1000 nM

**Q.** And the IC50 (MOLT-4)?
**A.** > 1000 nM

**Q.** And the IC50 (D-263MG)?
**A.** 27.9 nM

**Q.** And the IC50 (OCI-AML2)?
**A.** 654 nM

**Q.** And the IC50 (CGTH-W-1)?
**A.** 23.5 nM

**Q.** What about the IC50 (SK-N-DZ) of the same compound?
**A.** > 1000 nM

**Q.** What about the IC50 (HCC38) of the same compound?
**A.** 301 nM

**Q.** And the IC50 (NCI-H1693)?
**A.** > 1000 nM

**Q.** And the IC50 (CP66-MEL)?
**A.** 610 nM

**Q.** And the IC50 (UMUC3)?
**A.** 455 nM

**Q.** What about the IC50 (EKVX) of the same compound?
**A.** > 1000 nM

**Q.** What about the IC50 (HD-MY-Z) of the same compound?
**A.** 109 nM

**Q.** What about the IC50 (Mo) of the same compound?
**A.** > 1000 nM

**Q.** What about the IC50 (DEL) of the same compound?
**A.** 185 nM

**Q.** And the IC50 (DOK)?
**A.** 49 nM

**Q.** What about the IC50 (BPH-1) of the same compound?
**A.** 134 nM

**Q.** And the IC50 (D-392MG)?
**A.** 894 nM

**Q.** And the IC50 (NCI-H446)?
**A.** > 1000 nM

**Q.** And the IC50 (HO-1-N-1)?
**A.** 40.2 nM

**Q.** What about the IC50 (MN-60) of the same compound?
**A.** > 1000 nM

**Q.** What about the IC50 (CAL-33) of the same compound?
**A.** > 1000 nM

**Q.** What about the IC50 (SW872) of the same compound?
**A.** 608 nM

**Q.** And the IC50 (HCE-T)?
**A.** 386 nM

**Q.** And the IC50 (GI-1)?
**A.** 146 nM

**Q.** And the IC50 (BCPAP)?
**A.** 189 nM

**Q.** What about the IC50 (ESS-1) of the same compound?
**A.** 248 nM

— ChEMBL document CHEMBL1201861, “Genomics of Drug Sensitity in Cancer screening data, Wellcome Trust Sanger Institute”
